Assay results reported in PMC7073229, “Novel Quinoline Compounds Active in Cancer Cells through Coupled DNA Methyltransferase Inhibition and Degradation” (Cancers, 2020).

What was measured:
Assay in all cases: Kinase inhibitory assay (panel)
Assay type in all cases: biochemical
Conditions in all cases: read-out: % inhibition at 10 µM
ROCK1 (h) = ROCK1 (h) (Homo sapiens, UniProt Q13464)
Experimental: (§1) Experimental procedure of kinase inhibitory assays
(§2) The test compound, reference compound or water (control) were mixed with the enzyme (for the exact amount see table below) in the appropriate buffer. Thereafter, the reaction was initiated by adding the required amount of the appropriate substrate and of ATP, and the mixture is incubated at room temperature (variable reaction time, see table below). For control basal measurements, the enzyme was omitted from the reaction mixture. Following incubation, the reaction was stopped by adding 13 mM
(§3) EDTA. After 5 min, the proper antibody labelled with europium chelate was added. After 60 more min, the fluorescence transfer was measured at λex=337 nm, λem=620 nm and λem=665 nm using a microplate reader (Envision, Perkin Elmer). The enzyme activity was determined by d ividing the signal measured at 665 nm by that measured at 620 nm (ratio). The results are expressed as a percent inhibition of the control enzyme activity. The standard inhibitory reference compound is staurosporine when not differently indicated (see tabl e below), which has been tested in each experiment at several concentrations to obtain an inhibition curve from which its IC 50 value is calculated.
(§4) • Assay volume and format: 10 µL in 384-well plate
(§5) • Compound addition: [100x] solution in solvent then [5x] solution in water • Maximum tolerable DMSO concentration: 1%

PKA (h) = PKA (h) (Homo sapiens, UniProt P17612)
Experimental: as §1, §2, §3, §4, §5

SGK1 (h) = SGK1 (h) (Homo sapiens, UniProt O00141)
Experimental: as §1, §2, §3, §4, §5

NEK2 (h) = NEK2 (h) (Homo sapiens, UniProt P51955)
Experimental: as §1, §2, §3, §4, §5

CaMK2alpha (h) = CaMK2alpha (h) (Homo sapiens, UniProt Q9UQM7)
Experimental: as §1, §2, §3, §4, §5

Pim2 kinase (h) = Pim2 kinase (h) (Homo sapiens, UniProt Q9P1W9)
Experimental: as §1, §2, §3, §4, §5

PAK2 (h) = PAK2 (h) (Homo sapiens, UniProt Q13177)
Experimental: as §1, §2, §3, §4, §5

CHK2 (h) = CHK2 (h) (Homo sapiens, UniProt O96017)
Experimental: as §1, §2, §3, §4, §5

EGFR kinase (h) = EGFR kinase (h) (Homo sapiens, UniProt P00533)
Experimental: as §1, §2, §3, §4, §5

SIK (h) = SIK (h) (Homo sapiens, UniProt P57059)
Experimental: as §1, §2, §3, §4, §5

Chain of Pim2 kinase (h) (Q9P1W9 whole entry): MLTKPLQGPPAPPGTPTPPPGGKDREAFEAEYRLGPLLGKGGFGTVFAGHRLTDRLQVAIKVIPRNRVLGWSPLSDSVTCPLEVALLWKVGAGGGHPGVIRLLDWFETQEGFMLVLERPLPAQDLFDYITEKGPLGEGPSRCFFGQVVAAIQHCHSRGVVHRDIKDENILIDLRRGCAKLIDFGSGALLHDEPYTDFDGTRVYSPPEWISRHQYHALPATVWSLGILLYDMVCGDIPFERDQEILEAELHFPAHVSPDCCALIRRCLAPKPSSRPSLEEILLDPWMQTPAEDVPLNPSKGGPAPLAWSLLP
Chain of SIK (h) (P57059 whole entry): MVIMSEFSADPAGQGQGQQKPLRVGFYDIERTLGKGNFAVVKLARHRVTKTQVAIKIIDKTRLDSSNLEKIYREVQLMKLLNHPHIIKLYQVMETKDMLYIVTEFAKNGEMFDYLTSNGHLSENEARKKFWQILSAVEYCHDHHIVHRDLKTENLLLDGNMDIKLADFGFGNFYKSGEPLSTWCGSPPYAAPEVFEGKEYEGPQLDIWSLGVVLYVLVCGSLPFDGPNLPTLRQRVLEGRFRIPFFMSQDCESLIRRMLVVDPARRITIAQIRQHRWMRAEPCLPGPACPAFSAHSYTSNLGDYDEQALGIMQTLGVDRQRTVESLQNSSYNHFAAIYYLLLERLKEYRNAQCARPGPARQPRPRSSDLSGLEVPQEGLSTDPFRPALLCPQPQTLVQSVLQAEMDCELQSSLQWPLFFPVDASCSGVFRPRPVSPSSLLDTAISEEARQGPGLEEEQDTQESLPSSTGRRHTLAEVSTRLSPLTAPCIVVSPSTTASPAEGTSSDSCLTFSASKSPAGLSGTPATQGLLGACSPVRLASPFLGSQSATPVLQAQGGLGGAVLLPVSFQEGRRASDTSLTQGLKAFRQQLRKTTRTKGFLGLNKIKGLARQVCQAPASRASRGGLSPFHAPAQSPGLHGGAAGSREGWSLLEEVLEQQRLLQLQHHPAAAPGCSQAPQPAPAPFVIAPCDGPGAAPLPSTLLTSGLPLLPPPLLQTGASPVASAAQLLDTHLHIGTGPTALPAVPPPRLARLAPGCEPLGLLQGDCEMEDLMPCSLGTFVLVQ
Chain of ROCK1 (h) (Q13464 whole entry): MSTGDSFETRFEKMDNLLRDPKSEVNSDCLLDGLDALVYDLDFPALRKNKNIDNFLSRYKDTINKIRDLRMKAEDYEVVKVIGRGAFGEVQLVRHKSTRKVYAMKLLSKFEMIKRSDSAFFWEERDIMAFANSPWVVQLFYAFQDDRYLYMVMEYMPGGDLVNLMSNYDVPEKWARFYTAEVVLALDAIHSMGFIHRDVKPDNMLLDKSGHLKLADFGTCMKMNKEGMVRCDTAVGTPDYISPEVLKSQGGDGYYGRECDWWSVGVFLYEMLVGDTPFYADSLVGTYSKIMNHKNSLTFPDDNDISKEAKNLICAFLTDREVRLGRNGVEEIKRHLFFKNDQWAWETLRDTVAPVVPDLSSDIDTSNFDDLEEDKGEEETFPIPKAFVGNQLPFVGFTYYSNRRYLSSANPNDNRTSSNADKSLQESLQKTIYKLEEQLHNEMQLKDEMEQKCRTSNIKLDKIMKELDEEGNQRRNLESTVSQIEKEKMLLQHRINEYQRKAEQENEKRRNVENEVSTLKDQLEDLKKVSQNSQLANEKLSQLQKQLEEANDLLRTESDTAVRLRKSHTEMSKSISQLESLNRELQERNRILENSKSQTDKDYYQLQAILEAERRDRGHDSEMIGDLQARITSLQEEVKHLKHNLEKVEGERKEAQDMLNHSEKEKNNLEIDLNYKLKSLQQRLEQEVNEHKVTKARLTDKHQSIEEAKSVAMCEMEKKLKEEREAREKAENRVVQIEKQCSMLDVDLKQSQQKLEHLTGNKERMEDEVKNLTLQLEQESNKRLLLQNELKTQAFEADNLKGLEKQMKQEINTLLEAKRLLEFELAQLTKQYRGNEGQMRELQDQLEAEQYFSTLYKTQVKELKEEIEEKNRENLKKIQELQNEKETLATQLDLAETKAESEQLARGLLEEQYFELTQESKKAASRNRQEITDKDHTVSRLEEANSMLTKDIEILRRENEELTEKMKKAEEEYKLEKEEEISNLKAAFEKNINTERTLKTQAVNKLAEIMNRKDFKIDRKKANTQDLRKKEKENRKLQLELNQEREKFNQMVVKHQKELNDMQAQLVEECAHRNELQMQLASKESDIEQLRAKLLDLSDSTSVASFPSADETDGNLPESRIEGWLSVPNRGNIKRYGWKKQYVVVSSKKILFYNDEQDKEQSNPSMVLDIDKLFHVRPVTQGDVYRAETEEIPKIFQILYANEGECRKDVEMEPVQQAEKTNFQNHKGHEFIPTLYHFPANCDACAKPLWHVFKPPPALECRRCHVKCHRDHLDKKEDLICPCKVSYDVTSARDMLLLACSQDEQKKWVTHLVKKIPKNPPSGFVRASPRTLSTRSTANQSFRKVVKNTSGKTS
Chain of NEK2 (h) (P51955 whole entry): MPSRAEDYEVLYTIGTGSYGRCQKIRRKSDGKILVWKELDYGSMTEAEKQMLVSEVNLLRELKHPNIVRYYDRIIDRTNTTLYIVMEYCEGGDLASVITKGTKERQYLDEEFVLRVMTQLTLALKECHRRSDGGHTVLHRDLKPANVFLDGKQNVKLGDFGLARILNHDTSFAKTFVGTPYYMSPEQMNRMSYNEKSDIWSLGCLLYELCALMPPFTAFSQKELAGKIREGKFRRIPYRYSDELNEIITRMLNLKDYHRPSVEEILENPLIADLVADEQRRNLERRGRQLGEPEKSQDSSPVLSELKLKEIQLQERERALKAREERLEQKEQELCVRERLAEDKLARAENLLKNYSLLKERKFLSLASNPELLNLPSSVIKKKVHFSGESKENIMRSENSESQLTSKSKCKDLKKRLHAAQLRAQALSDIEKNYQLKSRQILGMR
Chain of CHK2 (h) (O96017 whole entry): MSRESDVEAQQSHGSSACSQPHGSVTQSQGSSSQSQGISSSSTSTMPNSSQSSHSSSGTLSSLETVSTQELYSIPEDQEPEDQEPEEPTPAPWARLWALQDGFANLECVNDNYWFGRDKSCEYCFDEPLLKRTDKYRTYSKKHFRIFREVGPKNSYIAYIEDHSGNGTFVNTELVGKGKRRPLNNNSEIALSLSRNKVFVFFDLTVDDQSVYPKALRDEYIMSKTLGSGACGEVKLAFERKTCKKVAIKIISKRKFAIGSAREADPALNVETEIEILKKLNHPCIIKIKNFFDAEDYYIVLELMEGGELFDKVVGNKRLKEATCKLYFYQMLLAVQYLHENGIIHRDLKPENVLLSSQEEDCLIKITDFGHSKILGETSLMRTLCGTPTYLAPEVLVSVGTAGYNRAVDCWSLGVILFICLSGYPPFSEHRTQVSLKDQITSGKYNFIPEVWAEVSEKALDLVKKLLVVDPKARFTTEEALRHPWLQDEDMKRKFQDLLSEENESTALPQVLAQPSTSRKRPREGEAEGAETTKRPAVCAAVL
Chain of PAK2 (h) (Q13177 whole entry): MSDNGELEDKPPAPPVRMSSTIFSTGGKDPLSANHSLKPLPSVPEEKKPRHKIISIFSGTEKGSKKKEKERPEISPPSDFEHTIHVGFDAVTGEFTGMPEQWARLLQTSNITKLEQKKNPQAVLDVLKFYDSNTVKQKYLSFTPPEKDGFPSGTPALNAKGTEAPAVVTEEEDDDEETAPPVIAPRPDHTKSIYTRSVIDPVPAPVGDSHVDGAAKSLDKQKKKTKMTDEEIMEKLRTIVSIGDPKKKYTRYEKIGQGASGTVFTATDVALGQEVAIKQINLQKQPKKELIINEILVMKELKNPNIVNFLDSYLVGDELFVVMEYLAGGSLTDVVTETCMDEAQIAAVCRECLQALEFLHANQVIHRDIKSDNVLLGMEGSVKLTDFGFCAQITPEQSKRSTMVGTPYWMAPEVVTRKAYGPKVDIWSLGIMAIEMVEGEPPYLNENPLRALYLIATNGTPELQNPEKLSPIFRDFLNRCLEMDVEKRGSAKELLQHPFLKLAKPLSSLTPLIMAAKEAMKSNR
Chain of CaMK2alpha (h) (Q9UQM7 whole entry): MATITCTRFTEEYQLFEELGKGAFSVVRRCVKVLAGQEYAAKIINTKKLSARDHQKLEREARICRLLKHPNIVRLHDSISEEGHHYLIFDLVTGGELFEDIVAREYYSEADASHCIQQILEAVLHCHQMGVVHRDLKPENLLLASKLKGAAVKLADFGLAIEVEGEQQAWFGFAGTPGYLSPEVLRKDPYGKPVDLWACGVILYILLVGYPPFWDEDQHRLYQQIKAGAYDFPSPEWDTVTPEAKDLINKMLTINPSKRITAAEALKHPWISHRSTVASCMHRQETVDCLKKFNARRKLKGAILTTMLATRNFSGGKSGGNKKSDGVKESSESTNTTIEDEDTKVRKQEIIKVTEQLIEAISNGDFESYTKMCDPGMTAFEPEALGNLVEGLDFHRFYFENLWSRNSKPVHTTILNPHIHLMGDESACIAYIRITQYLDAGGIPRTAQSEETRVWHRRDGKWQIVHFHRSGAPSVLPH
Chain of SGK1 (h) (O00141 whole entry): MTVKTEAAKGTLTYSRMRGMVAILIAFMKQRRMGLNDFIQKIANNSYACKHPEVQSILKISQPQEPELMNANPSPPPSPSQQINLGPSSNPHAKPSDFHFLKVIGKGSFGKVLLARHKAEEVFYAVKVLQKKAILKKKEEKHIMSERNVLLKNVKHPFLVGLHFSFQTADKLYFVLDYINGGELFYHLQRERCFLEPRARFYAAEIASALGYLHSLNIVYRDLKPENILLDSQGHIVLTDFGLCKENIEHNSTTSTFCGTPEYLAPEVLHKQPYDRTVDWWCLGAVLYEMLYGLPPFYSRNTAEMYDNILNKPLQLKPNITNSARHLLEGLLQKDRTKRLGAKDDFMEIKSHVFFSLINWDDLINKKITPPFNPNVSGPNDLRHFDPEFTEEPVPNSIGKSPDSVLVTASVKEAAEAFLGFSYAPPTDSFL

O=C(Nc1ccc(Nc2ccnc3ccccc23)cc1)c1cccc(Nc2ccnc3ccccc23)c1 [Compound 2a] showed an inhibition at 10 µM (ROCK1 (h)) of -61%, an inhibition at 10 µM (PKA (h)) of 26% and an inhibition at 10 µM (SGK1 (h)) of 28%. The inhibition at 10 µM (NEK2 (h)) was -72%, the inhibition at 10 µM (CaMK2alpha (h)) was -99% and the inhibition at 10 µM (Pim2 kinase (h)) was -51%. For the same compound, the inhibition at 10 µM (PAK2 (h)) was -150%, the inhibition at 10 µM (CHK2 (h)) was -195% and the inhibition at 10 µM (EGFR kinase (h)) was 36%. It also gave an inhibition at 10 µM (SIK (h)) of 22%.
